Results taken from PubChem BioAssay AID330 (DTP/NCI, 2004).
Several values for one entry are separate records, joined by “and”; a condition that tells them apart may be missing. Identical values can stand only once. Inconclusive results and toxic doses are left out. Rule for the calls: active = survival T/C of 150% or more; inactive = T/C below 125% in these data.

Test system: P388 leukemia ip, CD2F1 mice, survival T/C
Assay: NCI In Vivo Anticancer Drug Screen. Data for tumor model P388 Leukemia (intraperitoneal) in CD2F1 (CDF1) mice
Details: endpoint: median survival time, higher = longer survival
Outline: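 Mice carrying the transplanted tumor received test compound or vehicle. Survival was recorded in each group, and the value is the treated-group measurement divided by that of the vehicle-treated control group.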

[1] = dose: 50.0 mg/kg/injection, schedule: Q01DX005 (ip), vehicle: saline with Tween-80
[2] = dose: 100.0 mg/kg/injection, schedule: Q01DX005 (ip), vehicle: saline with Tween-80
[3] = dose: 200.0 mg/kg/injection, schedule: Q01DX005 (ip), vehicle: saline with Tween-80
[4] = dose: 50.0 mg/kg/injection, schedule: Q01DX009 (ip), vehicle: saline with Tween-80
[5] = dose: 100.0 mg/kg/injection, schedule: Q01DX009 (ip), vehicle: saline with Tween-80
[6] = dose: 100.0 mg/kg/injection, schedule: Q04DX003 (ip), vehicle: saline with Tween-80
[7] = dose: 100.0 mg/kg/injection, schedule: Q04DX003 (ip), vehicle: saline
[8] = dose: 200.0 mg/kg/injection, schedule: Q04DX003 (ip), vehicle: saline
[9] = dose: 400.0 mg/kg/injection, schedule: Q04DX003 (ip), vehicle: saline with Tween-80
[10] = dose: 30.0 mg/kg/injection, schedule: Q01DX005 (ip), vehicle: saline with Tween-80

Measured: T/C

OCc1cccc2c1Oc1ccccc1S2
inactive: dose: 100.0 mg/kg/injection, schedule: Q01DX001 (ip), vehicle: saline with Tween-80 98 % of control | dose: 200.0 mg/kg/injection, schedule: Q01DX001 (ip), vehicle: saline with Tween-80 98 % of control | dose: 400.0 mg/kg/injection, schedule: Q01DX001 (ip), vehicle: saline with Tween-80 95 % of control

O=C1OC2CCCC1O2 (centres undefined)
inactive: [1] 106 % of control | [2] 100 % of control | [3] 98 % of control

CCCCCCC(=O)/C=C/c1ccc(OCOC)cc1
inactive: dose: 50.0 mg/kg/injection, schedule: Q01DX009 (ip), vehicle: saline + alcohol 97 % of control | dose: 100.0 mg/kg/injection, schedule: Q01DX009 (ip), vehicle: saline + alcohol 121 % of control | dose: 200.0 mg/kg/injection, schedule: Q01DX009 (ip), vehicle: saline + alcohol 100 % of control

COC1=C(N)C(=O)c2ncccc2C1=O
inactive: dose: 3.12 mg/kg/injection, schedule: Q01DX009 (ip), vehicle: saline with Tween-80 101 % of control | dose: 4.0 mg/kg/injection, schedule: Q01DX009 (ip), vehicle: DMSO 100 % of control | dose: 6.25 mg/kg/injection, schedule: Q01DX009 (ip), vehicle: saline with Tween-80 95 % of control | dose: 8.0 mg/kg/injection, schedule: Q01DX009 (ip), vehicle: DMSO 108 % of control | dose: 12.5 mg/kg/injection, schedule: Q01DX009 (ip), vehicle: saline with Tween-80 94 % of control | dose: 16.0 mg/kg/injection, schedule: Q01DX009 (ip), vehicle: DMSO 102 % of control

CC(=O)[O-].CC(=O)[O-].CC(=O)[O-].CC(=O)[O-].Cn1c(=O)c2[nH]cnc2n(C)c1=O.Cn1c(=O)c2[nH]cnc2n(C)c1=O.[Rh+2].[Rh+2]
inactive: dose: 3.12 mg/kg/injection, schedule: Q04DX002 (ip), vehicle: Klucel (hydroxypropylcellulose) (HPC) 100 % of control | dose: 6.25 mg/kg/injection, schedule: Q04DX002 (ip), vehicle: Klucel (hydroxypropylcellulose) (HPC) 101 % of control and 120 % of control | dose: 12.5 mg/kg/injection, schedule: Q04DX002 (ip), vehicle: Klucel (hydroxypropylcellulose) (HPC) 101 % of control and 118 % of control | dose: 25.0 mg/kg/injection, schedule: Q04DX002 (ip), vehicle: Klucel (hydroxypropylcellulose) (HPC) 103 % of control and 110 % of control | dose: 50.0 mg/kg/injection, schedule: Q04DX002 (ip), vehicle: Klucel (hydroxypropylcellulose) (HPC) 103 % of control

Nc1ccc2ccc(N)nc2c1
inactive: dose: 50.0 mg/kg/injection, schedule: Q01DX009 (ip), vehicle: acid diluted with saline 105 % of control

COC(=O)C12C(=O)C(C(=O)OC)(C(c3ccccc3)=C1c1ccccc1)C1OC(=O)OC12 (centres undefined)
inactive: [4] 91 % of control | [5] 86 % of control

CC(C)C1=CC(=O)C(C)(C2C(O)CC3(C)C4CC=C5C(CCC(O)C5(C)C)C4(C)C(=O)CC23C)O1 (centres undefined)
inactive: dose: 10.13 mg/kg/injection, schedule: Q01DX005 (ip), vehicle: saline + alcohol 97 % of control | dose: 20.25 mg/kg/injection, schedule: Q01DX005 (ip), vehicle: saline + alcohol 98 % of control | dose: 40.05 mg/kg/injection, schedule: Q01DX005 (ip), vehicle: saline + alcohol 101 % of control | dose: 81.0 mg/kg/injection, schedule: Q01DX005 (ip), vehicle: saline + alcohol 97 % of control

CCOc1ccc(N=C([Se])CC)cc1
inactive: dose: 6.25 mg/kg/injection, schedule: Q01DX009 (ip), vehicle: Klucel (hydroxypropylcellulose) (HPC) 109 % of control | dose: 12.5 mg/kg/injection, schedule: Q01DX009 (ip), vehicle: Klucel (hydroxypropylcellulose) (HPC) 102 % of control | dose: 25.0 mg/kg/injection, schedule: Q01DX009 (ip), vehicle: Klucel (hydroxypropylcellulose) (HPC) 92 % of control

CC(C)Cc1cc(C(F)(F)F)nc(NNc2nc(CC(C)C)cc(C(F)(F)F)n2)n1
inactive: dose: 50.0 mg/kg/injection, schedule: Q01DX009 (ip), vehicle: Klucel (hydroxypropylcellulose) (HPC) 90 % of control | dose: 100.0 mg/kg/injection, schedule: Q01DX009 (ip), vehicle: Klucel (hydroxypropylcellulose) (HPC) 87 % of control

CCOC(=O)[C]1([Sb]([CH3])[CH3])N=NC(C(=O)OC)=C1C(=O)OC (centres undefined)
inactive: dose: 25.0 mg/kg/injection, schedule: Q04DX003 (ip), vehicle: saline 101 % of control and 98 % of control | dose: 50.0 mg/kg/injection, schedule: Q04DX003 (ip), vehicle: saline 100 % of control and 102 % of control | [6] 108 % of control | [7] 102 % of control and 104 % of control | [8] 107 % of control and 98 % of control | [9] 105 % of control

CCOC(=O)c1nc2cc(C)c(C)cc2[nH]c1=O
inactive: [6] 95 % of control | dose: 200.0 mg/kg/injection, schedule: Q04DX003 (ip), vehicle: saline with Tween-80 100 % of control | [9] 104 % of control

COc1ccc(C(Cl)(c2ccccc2)c2ccc(C(C)=O)cc2)cc1 (centres undefined)
inactive: dose: 15.0 mg/kg/injection, schedule: Q01DX005 (ip), vehicle: saline with Tween-80 107 % of control | [10] 101 % of control | dose: 60.0 mg/kg/injection, schedule: Q01DX005 (ip), vehicle: saline with Tween-80 88 % of control and 97 % of control

COc1cccc(/C=C/C(=O)O)c1OC
inactive: dose: 25.0 mg/kg/injection, schedule: Q01DX009 (ip), vehicle: water 98 % of control | dose: 50.0 mg/kg/injection, schedule: Q01DX009 (ip), vehicle: water 91 % of control | dose: 100.0 mg/kg/injection, schedule: Q01DX009 (ip), vehicle: water 94 % of control | dose: 200.0 mg/kg/injection, schedule: Q01DX009 (ip), vehicle: water 100 % of control | dose: 400.0 mg/kg/injection, schedule: Q01DX009 (ip), vehicle: water 98 % of control

CC1=CC(O)C(O)C2(C)C1CC1OC(=O)C(OC3OC(CO)C(O)C(O)C3O)C3C(C)C(O)C4(O)OCC13C42 (centres undefined)
inactive: dose: 2.13 mg/kg/injection, schedule: Q01DX005 (ip), vehicle: water 101 % of control

CC(=O)NCSCC(N)C(=O)O (centres undefined)
inactive: dose: 100.0 mg/kg/injection, schedule: Q01DX009 (ip), vehicle: saline 104 % of control | [7] 95 % of control | dose: 200.0 mg/kg/injection, schedule: Q01DX009 (ip), vehicle: saline 118 % of control | [8] 113 % of control | dose: 400.0 mg/kg/injection, schedule: Q01DX009 (ip), vehicle: saline 90 % of control | dose: 400.0 mg/kg/injection, schedule: Q04DX003 (ip), vehicle: saline 90 % of control

COc1ccc(Cc2cc3c(cc2OCCOC(C)=O)OCO3)cc1
inactive: [1] 110 % of control | [2] 105 % of control | [3] 103 % of control

O=C(Nc1ccc(Cl)c(Cl)c1)Oc1cccnc1
inactive: [4] 100 % of control | [5] 105 % of control

COc1ccc([N+](=O)[O-])c(C=O)c1OS(=O)(=O)c1ccc(C)c([N+](=O)[O-])c1
inactive: dose: 25.0 mg/kg/injection, schedule: Q01DX009 (ip), vehicle: distilled water + Tween-80 93 % of control | dose: 100.0 mg/kg/injection, schedule: Q01DX009 (ip), vehicle: distilled water + Tween-80 98 % of control | dose: 200.0 mg/kg/injection, schedule: Q01DX009 (ip), vehicle: distilled water + Tween-80 90 % of control | dose: 400.0 mg/kg/injection, schedule: Q01DX009 (ip), vehicle: distilled water + Tween-80 90 % of control

CC(Nc1nncs1)Nc1nncs1
active: dose: 120.0 mg/kg/injection, schedule: Q01DX005 (ip), vehicle: saline with Tween-80 159 % of control and 162 % of control | dose: 240.0 mg/kg/injection, schedule: Q01DX005 (ip), vehicle: saline with Tween-80 160 % of control and 170 % of control
inactive: [10] 105 % of control

CC(C)c1ccc([C](C)(CC(C)(C)C)[Sn]([CH3])([CH3])[CH3])cc1 (centres undefined)
inactive: dose: 3.13 mg/kg/injection, schedule: Q04DX003 (ip), vehicle: Klucel (hydroxypropylcellulose) (HPC) 105 % of control | dose: 6.25 mg/kg/injection, schedule: Q04DX003 (ip), vehicle: Klucel (hydroxypropylcellulose) (HPC) 92 % of control | dose: 12.5 mg/kg/injection, schedule: Q04DX003 (ip), vehicle: Klucel (hydroxypropylcellulose) (HPC) 91 % of control

COC(=O)CCCCCCCCCCCCCCCCCCCCCCCCCCCCCCCCC(=O)OC
inactive: dose: 25.0 mg/kg/injection, schedule: Q01DX001 (ip), vehicle: Klucel (hydroxypropylcellulose) (HPC) 88 % of control | dose: 50.0 mg/kg/injection, schedule: Q01DX001 (ip), vehicle: Klucel (hydroxypropylcellulose) (HPC) 88 % of control | dose: 100.0 mg/kg/injection, schedule: Q01DX001 (ip), vehicle: Klucel (hydroxypropylcellulose) (HPC) 87 % of control
